Experimental data published in US10126289B2, “Multimodality CMOS sensor array for physiological characterization of cells” (Georgia Tech Research Corporation, priority 2015, dated 2018).

Legend:
[1] = tested on: human ovarian cancer cells (HeyA8-F8); conditions: general statement; depends on number of cells and luciferin concentration; cited from earlier work
[2] = tested on: human ovarian cancer cells (HeyA8-F8); conditions: 200 μg/mL luciferin at T=0; VPD 0.4V
Procedure: Ovarian Cancer Cells. For culturing the ovarian cancer cells (HeyA8-F8), the CMOS chip surface is sterilized by 70% ethanol and then washed three times with sterile Phosphate Buffered Saline (PBS). To increase cell adhesion to the chip surface, 0.1% gelatin is added onto the chip for 30 minutes before being aspirated. […] Ovarian cancer cells are then seeded directly onto the CMOS chip and allowed to attach before adding 1 mL of cell culture media.
The human ovarian cancer cells (HeyA8-F8) can constitutively express firefly luciferase. […] The bioluminescence information can be used to verify the viability of the HeyA8-F8 cancer cells and can be further extended to other bioluminescence cell-based assays.
Since the intensity of the bioluminescence light is generally weak, the background noise, such as the photodiode dark current, should be suppressed and calibrated. […] Moreover, dark current in each sensing pixel is recorded before the measurement and then subtracted after the bioluminescence recoding.
The CMOS sensor chip starts data recording after a 130-second setup time. During the optical detection, the photodiode reset pulse width is 1 second and the repetition rate is 0.05 Hz. Thus, each photo current integration window is 19 seconds, and the optical detection data is refreshed every 20 seconds. […]

human cardiomyocytes [3] = test: Joint-modality cardiac drug screening: extracellular voltage recording of cardiomyocyte beating on CMOS sensor chip; type: cell-based; conditions: 10 nM isoproterenol in culture medium
Procedure: (§1) Human Cardiomyocytes. Human ESCs are first cultured in a monolayer until confluence. Next, cardiomyocytes are directly differentiated through the use of small molecules Gsk3 inhibitor and Wnt inhibitor for 14 days. Finally, the CMOS chip is sterilized using 70% ethanol and coated with a Matrigel matrix as a protein mixture layer to enhance cell culture and attachment. Cardiomyocytes are then seeded onto the CMOS chips as either single cells or aggregated cardiospheres.
(§2) On-chip cultured human cardiomyocytes was used in this experiment. Their autonomous beating is captured by the extracellular voltage recording, and the beating rate is used to characterize the potency of the cardiac drugs. Isoproterenol, a small molecule cardiac drug, is used in this example. Isoproterenol has its known drug effect of activating the β1-receptors on the cardiac cells and increasing the cardiac cells beating rate. It has been widely used to treat bradycardia and heart block.
(§3) First, the on-chip cardiomyocytes beating spikes were recorded as the extracellular voltage recording in a normal culture medium. The baseline cellular impedance mapping was also measured. Next, 10 nM isoproterenol was directed to the cell culture medium using pipettes, and the cardiomyocytes are real-time monitored with joint-modality measurements. […]

human cardiomyocytes [4] = test: Joint-modality cardiac drug screening: real-time cellular impedance sensing (cell attachment); type: cell-based; conditions: 10 nM isoproterenol; FIG. 20
Procedure: as §1, §2, §3

Compound	time of luminescence emission peak after administration (in general) [1]	time at which bioluminescence emission fully decays [2]	time of bioluminescence emission peak after administration [2]	increase of recorded number of cell beating spikes in the 90-second counting window (human cardiomyocytes [3])	real-time cardiomyocytes impedance change (cell attachment) (human cardiomyocytes [4])
O=C(O)[C@H]1CSC(c2nc3ccc(O)cc3s2)=N1 [luciferin]	about 5 minutes	800 s	around 300 seconds		
CC(C)NCC(O)c1ccc(O)c(O)c1 (centres unmarked) [isoproterenol, Isoproterenol]				150%	small decrease
